In brackets after ≈: the same amount, converted by molar mass.
Assays:
Assay type in all cases: functional
Streptococcus pneumoniae [1] = test: Antimicrobial activity against inducible macrolide and constitutive lincosamide, streptogramin-resistant Streptococcus pneumoniae 4636
Streptococcus pneumoniae [2] = test: Antimicrobial activity against macrolide-sensitive Streptococcus pneumoniae SPO 30
Streptococcus pneumoniae [3] = test: Antimicrobial activity against macrolide-resistant Streptococcus pneumoniae Ci137
Streptococcus pyogenes [4] = test: Antimicrobial activity against macrolide-sensitive Streptococcus pyogenes 3665
Streptococcus pyogenes [5] = test: Antimicrobial activity against inducible macrolide, lincosamide, streptogramin-resistant Streptococcus pyogenes Finland 11
Haemophilus influenzae = test: Antimicrobial activity against Haemophilus influenzae ATCC 49247
Staphylococcus aureus = test: Antimicrobial activity against macrolide-sensitive Staphylococcus aureus ATCC 13709

| SMILES | MIC (Streptococcus pneumoniae [1]) [µg/mL] | MIC (Streptococcus pneumoniae [2]) [µg/mL] | MIC (Streptococcus pneumoniae [3]) [µg/mL] | MIC (Streptococcus pyogenes [4]) [µg/mL] | MIC (Streptococcus pyogenes [5]) [µg/mL] | MIC (Haemophilus influenzae) [µg/mL] | MIC (Staphylococcus aureus) [µg/mL] |
| --- | --- | --- | --- | --- | --- | --- | --- |
| CC[C@H]1OC(=O)[C@H](C)[C@@H](O[C@H]2C[C@@](C)(OC)[C@@H](OC(=O)CCNCC(=O)Nc3ccc([N+](=O)[O-])cc3)[C@H](C)O2)[C@H](C)[C@@H](O[C@@H]2O[C@H](C)C[C@H](N(C)C)[C@H]2O)[C@](C)(O)C[C@@H](C)NC(=O)[C@H](C)[C@@H](O)[C@]1(C)O | 32 (≈ 32.1 µM) | < 0.13 | 4 (≈ 4.01 µM) | < 0.13 | 4 (≈ 4.01 µM) | 8 (≈ 8.01 µM) | 2 (≈ 2 µM) |
| CC[C@H]1OC(=O)[C@H](C)[C@@H](O[C@H]2C[C@@](C)(OC)[C@@H](OC(=O)CCN3CCN(C(=O)c4ccco4)CC3)[C@H](C)O2)[C@H](C)[C@@H](O[C@@H]2O[C@H](C)C[C@H](N(C)C)[C@H]2O)[C@](C)(O)C[C@@H](C)NC(=O)[C@H](C)[C@@H](O)[C@]1(C)O | > 64 | < 0.13 | 2 (≈ 2.03 µM) | < 0.13 | 8 (≈ 8.14 µM) | 16 (≈ 16.3 µM) | 4 (≈ 4.07 µM) |
| CC[C@H]1OC(=O)[C@H](C)[C@@H](O[C@H]2C[C@@](C)(OC)[C@@H](OC(=O)CCNCC(=O)Nc3ccc4ccccc4c3)[C@H](C)O2)[C@H](C)[C@@H](O[C@@H]2O[C@H](C)C[C@H](N(C)C)[C@H]2O)[C@](C)(O)C[C@@H](C)NC(=O)[C@H](C)[C@@H](O)[C@]1(C)O | 32 (≈ 31.9 µM) | < 0.13 | 2 (≈ 1.99 µM) | < 0.13 | 8 (≈ 7.97 µM) | 4 (≈ 3.99 µM) | 4 (≈ 3.99 µM) |
| CC[C@H]1OC(=O)[C@H](C)[C@@H](O[C@H]2C[C@@](C)(OC)[C@@H](OC(=O)CCN[C@@H](C)c3ccc([N+](=O)[O-])cc3)[C@H](C)O2)[C@H](C)[C@@H](O[C@@H]2O[C@H](C)C[C@H](N(C)C)[C@H]2O)[C@](C)(O)C[C@@H](C)NC(=O)[C@H](C)[C@@H](O)[C@]1(C)O | 16 (≈ 16.5 µM) | < 0.13 | 4 (≈ 4.13 µM) | < 0.13 | 4 (≈ 4.13 µM) | 8 (≈ 8.25 µM) | 4 (≈ 4.13 µM) |
| CC[C@H]1OC(=O)[C@H](C)[C@@H](O[C@H]2C[C@@](C)(OC)[C@@H](OC(=O)CCN[C@H](C)c3ccc([N+](=O)[O-])cc3)[C@H](C)O2)[C@H](C)[C@@H](O[C@@H]2O[C@H](C)C[C@H](N(C)C)[C@H]2O)[C@](C)(O)C[C@@H](C)NC(=O)[C@H](C)[C@@H](O)[C@]1(C)O | 32 (≈ 33 µM) | < 0.13 | 4 (≈ 4.13 µM) | < 0.13 | 8 (≈ 8.25 µM) | 4 (≈ 4.13 µM) | 4 (≈ 4.13 µM) |
| CC[C@H]1OC(=O)[C@H](C)[C@@H](O[C@H]2C[C@@](C)(OC)[C@@H](OC(=O)CCN[C@@H](C)C(=O)Nc3ccc4ccccc4c3)[C@H](C)O2)[C@H](C)[C@@H](O[C@@H]2O[C@H](C)C[C@H](N(C)C)[C@H]2O)[C@](C)(O)C[C@@H](C)NC(=O)[C@H](C)[C@@H](O)[C@]1(C)O | 32 (≈ 31.5 µM) | < 0.13 | 0.5 (≈ 0.492 µM) | < 0.13 | 8 (≈ 7.86 µM) | 2 (≈ 1.97 µM) | 2 (≈ 1.97 µM) |
| CC[C@H]1OC(=O)[C@H](C)[C@@H](O[C@H]2C[C@@](C)(OC)[C@@H](OC(=O)CCN[C@@H](C)C(=O)Nc3ccc([N+](=O)[O-])cc3)[C@H](C)O2)[C@H](C)[C@@H](O[C@@H]2O[C@H](C)C[C@H](N(C)C)[C@H]2O)[C@](C)(O)C[C@@H](C)NC(=O)[C@H](C)[C@@H](O)[C@]1(C)O | 32 (≈ 31.6 µM) | < 0.13 | 2 (≈ 1.98 µM) | < 0.13 | 4 (≈ 3.95 µM) | 4 (≈ 3.95 µM) | 4 (≈ 3.95 µM) |
| CC[C@H]1OC(=O)[C@H](C)[C@@H](O[C@H]2C[C@@](C)(OC)[C@@H](OC(=O)CCN3CCN(C(=O)c4ccco4)CC3)[C@H](C)O2)[C@H](C)[C@@H](O[C@@H]2O[C@H](C)C[C@H](N(C)C)[C@H]2O)[C@](C)(OC)C[C@@H](C)NC(=O)[C@H](C)[C@@H](O)[C@]1(C)O | 32 (≈ 32.1 µM) | < 0.13 | 2 (≈ 2.01 µM) | < 0.13 | 16 (≈ 16 µM) | 4 (≈ 4.01 µM) | 2 (≈ 2.01 µM) |
| CC[C@H]1OC(=O)[C@H](C)[C@@H](O[C@H]2C[C@@](C)(OC)[C@@H](OC(=O)CCNCC(=O)Nc3ccc4ccccc4c3)[C@H](C)O2)[C@H](C)[C@@H](O[C@@H]2O[C@H](C)C[C@H](N(C)C)[C@H]2O)[C@](C)(OC)C[C@@H](C)NC(=O)[C@H](C)[C@@H](O)[C@]1(C)O | 16 (≈ 15.7 µM) | < 0.13 | 2 (≈ 1.97 µM) | < 0.13 | 16 (≈ 15.7 µM) | 2 (≈ 1.97 µM) | 1 (≈ 0.983 µM) |
